# Columns and labels:
# [1] = rats (Graham and Li, 1973); cited from earlier work
# [2] = system: Chronic Constriction Injury model of chronic neuropathic pain; test: Von Frey pain threshold in the Chronic Constriction Injury (sciatic nerve ligation) model; conditions: CCI rats
# From the text: Male Sprague Dawley rats underwent baseline measurement of pain threshold via Von Frey testing according to the study schema in FIG. 4. The following day, rats underwent surgical ligation of the sciatic nerve using the Chronic Constriction Injury model of chronic neuropathic pain. After 7 days to allow the development of chronic neuropathic pain, rats underwent repeat Von Frey testing to determine pain threshold and started oral treatment with CBD or saline (Table 2). After 7 days of CBD or saline, rats underwent pre-dosing pain threshold determination via Von Frey testing and then received either standard dose BUP, low dose BUP, CBD alone or low dose BUP plus CBD followed by repeat post-dose pain threshold determination via Von Frey testing (Table 3).
# [3] = target: Cytochrome P450 3A4 (CYP 3A4) (Homo sapiens, UniProt P08684); conditions: in vitro study (Stout and Cimino 2014); cited from earlier work
# Chain of Cytochrome P450 3A4 (CYP 3A4) (P08684 whole entry, species assumed): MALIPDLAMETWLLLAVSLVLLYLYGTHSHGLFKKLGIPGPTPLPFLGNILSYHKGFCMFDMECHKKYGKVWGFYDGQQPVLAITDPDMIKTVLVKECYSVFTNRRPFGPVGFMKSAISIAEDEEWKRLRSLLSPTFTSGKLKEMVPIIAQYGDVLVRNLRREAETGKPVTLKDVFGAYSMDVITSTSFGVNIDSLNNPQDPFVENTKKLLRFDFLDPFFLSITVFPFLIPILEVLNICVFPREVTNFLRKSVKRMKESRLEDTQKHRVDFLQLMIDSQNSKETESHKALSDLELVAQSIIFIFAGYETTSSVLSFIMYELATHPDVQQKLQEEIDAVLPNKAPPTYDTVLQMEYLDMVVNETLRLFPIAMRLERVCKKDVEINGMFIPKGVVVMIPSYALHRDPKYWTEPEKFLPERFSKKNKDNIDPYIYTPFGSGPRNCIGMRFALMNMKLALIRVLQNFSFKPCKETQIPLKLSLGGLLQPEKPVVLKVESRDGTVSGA
compound,measurement,setting,value
"C=C(C)[C@@H]1CCC(C)=C[C@H]1c1c(O)cc(CCCCC)cc1O [CBD, cannabidiol]",Effect on respiratory rate,[1],did not reduce
same,"Mean pain threshold (g in Von Frey Testing), Day 14-1 hour Post Dose","[2]; CBD alone 7 mg/kg PO days 7-14, saline IV on day 14",5.25 g
same,Pain threshold on day 14 compared to no BUP (Group 1),[2]; CBD alone 7 mg/kg PO days 7-14,did not significantly increase
same,"Mean pain threshold (g in Von Frey Testing), Day 14 Pre-Dose","[2]; CBD alone group, after 7 days of CBD 7 mg/kg PO, before day 14 dosing",5.50 g
same,Inhibition of CYP 3A4,[3],inhibits

# From patent US12364668B2, “Treatment of opioid use disorder, opioid withdrawal symptoms, and chronic pain” (THE REGENTS OF THE UNIVERSITY OF CALIFORNIA, priority 2017, dated 2025)
